# From patent publication US20250127723A1, “PHARMACEUTICAL COMPOSITION COMPRISING LARGE PHYSIOLOGICALLY ACTIVE SUBSTANCE AND EXCIPIENT” (priority 2021, published 2025)
# Where a name gives a salt, the structure may show the parent alone. Bridge positions count the residues as written; N and C are the ends. Square brackets hold non-standard residues; d marks the D form. Side chains are listed from the residue outwards. Ends that are not written are not given here. Lys‑B1 = not defined here; EG2 = not defined here; Aib = CC(C)(N)C(=O)O
# Key:
# [1] = Body weight change 24 hours after single oral administration of amylin derivatives; format: in vivo; conditions: mice, bile acid absorption accelerator formulation
# Method: After a single oral administration of a formulation using a combination of a large physiologically active substance and excipients to mice, body weight changes were confirmed for 24 hours.
# Caco-2 cells = system: Caco-2 cells
# Method: The cytotoxicity of excipients was evaluated using Caco-2 cells using the following method. First, to check the amount of intracellular accumulation, Caco-2 cells were distributed in a 96-well plate at 1×10^5 per well and cultured in a CO2 incubator at a temperature of 37° C. The culture solution from each well is removed and replacement by a new culture medium is performed. After that, […] of the prepared excipient was added and this was cultured in a CO2 incubator at 37° C. After 2 hours, each well was treated with 100 µL of luciferase reagent (Promega, #G7571) and incubated at room temperature. After 10 minutes, the luminescence value of each well was measured. […] [formula]
# [2] = system: monolayer membrane of Caco-2 cells; test: Tight junction openness by change in TEER value, Caco-2 monolayer; format: cell-based; conditions: apical treatment, 0-120 min, FIG. 2
# Method: First, to form a Caco-2 cell monolayer, 1.5×10^5 cells per well was dispensed in a 12-Transwell plate and cultured for 3 to 4 weeks under 37° C. CO2 conditions. For the first week, the culture medium was changed once every two days, and thereafter, the culture medium was changed every three days. In the experiment, samples between 3 and 4 weeks after seeding were used. To evaluate the degree of damage to the Caco-2 cell monolayer by excipients, the degree of cells cultured as a monolayer on a semi-permeable membrane was measured by the difference in electrical resistance between the apical side and the basolateral side. First, the Transwell to be used in each test is washed using a washing buffer (HBSS), replaced by culture medium, and equilibrated in a 37° C. CO2 incubator for 15 minutes. After adding 500 μL of the prepared excipient to the apical side and treating the basolateral side with 1.5 mL of culture medium containing no excipient, changes in TEER values were measured using a Millicell ERS-2 Voltohmmeter at each time point (0, 5, 15, 30, 45, 60, 90, 120 min) from the time of treatment.
# Caco-2 cell monolayer [3] = format: in vitro ADME
# Method: Using the Caco-2 cell monolayer, changes in the permeability of markers for each permeation pathway due to excipients were evaluated using the following method. First, to form a Caco-2 cell monolayer, 1.5×10^5 cells per well were dispensed in a 12-Transwell plate and cultured for 3 to 4 weeks under 37° C. CO2 conditions. For the first week, the culture medium was changed once every two days, and thereafter, the culture medium was changed every three days. In the experiment, samples between 3 and 4 weeks after seeding were used. To verify the formation of a cell monolayer, TEER values and Lucifer yellow values were measured, and only cell monolayer membranes having a TEER value of 300 Ω·cm^2 or more and a measured transmittance of Lucifer yellow within 3% were used in the test. After the Transwells to be used for each test were washed using transport media (HBSS) and incubated in a 37° C. CO2 incubator for 1 hour, 500 μL of bile acid derivatives and permeability marker were added to the apical side, and 1.5 mL of drug-free transport media was treated onto the basolateral side, and incubation was performed for 2 hours in a 37° C. CO2 incubator thereafter. At this time, fluorescein isothiocyanate-dextran (FD4) was used as a paracellular marker, and metoprolol was used as a transcellular marker to confirm the change in permeability coefficient according to bile acid derivative treatment. […]
# Caco-2 cell monolayer [4] = format: in vitro ADME; remark: listed apart in the source
# Method: First, to form a Caco-2 cell monolayer, 1.5×10^5 cells per well were dispensed in a 12-Transwell plate and this was cultured for 3 to 4 weeks under 37° C. CO2 conditions. For the first week, the culture medium was changed once every two days, and thereafter, the culture medium was changed every three days. In the experiment, samples between 3 and 4 weeks after seeding were used. To verify the formation of a cell monolayer, TEER values and Lucifer yellow values were measured; only cell monolayer membranes having a TEER value of 300 Ω·cm^2 or more and a measured transmittance of Lucifer yellow within 3% were used in the test. After washing the Transwell to be used for each test using transport media (HBSS), incubation was performed for 1 hour in a 37° C. CO2 incubator; then, 500 μL each of large physiologically active substance (50 μM) and bile acid derivatives (100 μM) were added to the apical side, and 1.5 mL of drug-free transport media was treated onto the basolateral side. Subsequently, incubation was performed for 2 hours in a 37° C. CO2 incubator.
# [formula] • (*dCr-concentration of the permeated sample, dt-drug treatment time, Vr-basolateral volume, A-Transwell area, C0-initial applied drug concentration)
# [5] = Weight loss, appetite suppression and anti-diabetic efficacy, oral Compound 17 formulation in obese mice; format: in vivo, mice (C57BL/6); conditions: high-fat diet obese C57BL/6 mice; Compound 17 300 to 1000 nmol/kg oral daily 3 weeks; CDC 6.8, UDC 13.6, PG 13.6 mg/mL; FIGS. 11 to 13
# Method: After oral administration of a formulation containing a large physiologically active substance (Compound 17) and excipients to mice, changes in mouse body weight and anti-diabetic efficacy were confirmed. Specifically, the administered dose of Compound 17 used 300 to 1000 nmol/kg, and the excipient concentrations in the administered formulation used CDC 6.8 mg/mL, UDC 13.6 mg/mL, and PG 13.6 mg/mL. The vehicle used 0.02% polysorbate 80 in 10 mM PBS (pH 7.4). Obese mice were induced by feeding high-fat diet to 6-week-old male mice (C57BL/6) for 16 weeks; then weight changes were confirmed by oral administration of the GLP-1/Glucagon receptor dual agonist (Compound 17), which combines biotin and fatty acid moieties, every day for 3 weeks using a bile acid absorption accelerator formulation.
# [6] = Cmax after duodenal administration of Compounds 23 and 24; parameters: species or system experimental rats; conditions: rat, in vivo; rats, duodenum; CDC 68 mg/kg, PG 34 mg/kg; Compound 23 5.4 mg/kg, Compound 24 6.2 mg/kg
# Method: A large physiologically active substance (Compound 24) was formulated by dissolving it in the corresponding vehicle (0.02% polysorbate 80 in 10 mM PBS (pH 7.4)) with the excipient composition shown in Table 6 above. After administering the above formulation to the duodenum of experimental rats, Cmax was compared. The corresponding results were compared with the results obtained by administering Compound 23, a large physiologically active substance without a biotin moiety, in the same formulation, and are shown in Table 7 below.
molecule,measurement,setting,value
"32: Amylin, SEQ No. 16: KCNTATCATQRLADFLRHSSNNFGAIPSSTNVGSRTY; K1: Lys-B1 (K*) ([Lys‑B1]CNTATCATQRLADFLRHSSNNFGAIPSSTNVGSRTY; ends and bridges not checked) [Compound 32]",body weight change after 24 hours,[1],weight loss was confirmed
"C[C@H](CCC(=O)O)[C@H]1CC[C@H]2[C@@H]3[C@@H](O)C[C@@H]4C[C@H](O)CC[C@]4(C)[C@H]3CC[C@]12C [UDC, Ursodeoxycholic acid or its salt]",cytotoxicity (cell viability),Caco-2 cells,least cytotoxicity
same,tight junction openness according to the change in TEER value,[2],non-tight junction openness
same,effect on paracellular (FD4) and transcellular (metoprolol) transport,Caco-2 cell monolayer [3],no enhancing effect on the two transport mechanisms
"35: Amylin, SEQ No. 17: RCNTATCATQRLADFLRHSSNNFGAIPSSTNVGSKTY; K35: Lys-B1 (K*) (RCNTATCATQRLADFLRHSSNNFGAIPSSTNVGS[Lys‑B1]TY; ends and bridges not checked) [Compound 35]",body weight change after 24 hours,[1],weight loss was confirmed
"30: Amylin, SEQ No. 15: KCNTATCATQRLADFLRHSSPNFGAIPSSTNVGSRTY; K1: αLys-EG2-Glu-C18 (*K); K1: Lys-B1 (K*) ({C18-Glu-EG2}-[Lys‑B1]CNTATCATQRLADFLRHSSPNFGAIPSSTNVGSRTY; not fully specified; ends and bridges not checked) [Compound 30]",body weight change after 24 hours,[1],weight loss was confirmed
"C[C@H](CCC(=O)O)[C@H]1CC[C@H]2[C@@H]3[C@H](O)C[C@@H]4C[C@H](O)CC[C@]4(C)[C@H]3CC[C@]12C [CDC, Chenodeoxycholic acid or its salt]",cytotoxicity (cell viability),Caco-2 cells,similar
same,effect of improving the permeability of large physiologically active substances,Caco-2 cell monolayer [4],had an effect of improving the permeability
same,effect on paracellular (FD4) and transcellular (metoprolol) transport,Caco-2 cell monolayer [3],promotes both paracellular transport and transcellular transport
"36: Amylin, SEQ No. 17: RCNTATCATQRLADFLRHSSNNFGAIPSSTNVGSKTY; R1: αArg-EG2-Glu-C18 (*R); K35: Lys-B1 (K*) ({C18-Glu-EG2}-RCNTATCATQRLADFLRHSSNNFGAIPSSTNVGSKTY; not fully specified (some residues); ends and bridges not checked) [Compound 36]",body weight change after 24 hours,[1],weight loss was confirmed
"CCCOC(=O)c1cc(O)c(O)c(O)c1 [PG, Propyl gallate]",tight junction openness according to the change in TEER value,[2],non-tight junction openness
"C[C@H](CCC(=O)O)[C@H]1CC[C@H]2[C@@H]3CC[C@@H]4C[C@H](O)CC[C@]4(C)[C@H]3C[C@H](O)[C@]12C [DC, Deoxycholic acid or its salt]",cytotoxicity (cell viability),Caco-2 cells,similar
"29: Amylin, SEQ No. 15: KCNTATCATQRLADFLRHSSPNFGAIPSSTNVGSRTY; K1: Lys-B1 (K*) ([Lys‑B1]CNTATCATQRLADFLRHSSPNFGAIPSSTNVGSRTY; ends and bridges not checked) [Compound 29]",body weight change after 24 hours,[1],weight loss was confirmed
"27: Amylin, SEQ No. 14: KCNTATCATQRLANFLVHSSNNFGPILPPTNVGSNTY; K1: αLys-EG2-Glu-C18 (*K); K1: Lys-B1 (K*) ({C18-Glu-EG2}-[Lys‑B1]CNTATCATQRLANFLVHSSNNFGPILPPTNVGSNTY; not fully specified; ends and bridges not checked) [Compound 27]",body weight change after 24 hours,[1],weight loss was confirmed
"26: Amylin, SEQ No. 14: KCNTATCATQRLANFLVHSSNNFGPILPPTNVGSNTY; K1: Lys-B1 (K*) ([Lys‑B1]CNTATCATQRLANFLVHSSNNFGPILPPTNVGSNTY; ends and bridges not checked) [Compound 26]",body weight change after 24 hours,[1],weight loss was confirmed
"Compound 17: GLP-1/GCGRA, SEQ No. 8: H-Aib-QGTFTSDYSKYLDEQAAKEFVQWLMNTK; (Lactam) between E16 and K20; K12: Lys-B1 (K*); K30: Lys-EG2-Glu-C18 (K*) (H-H[Aib]QGTFTSDYSKYLDEQAAKEFVQWLMNTK([EG2-Glu-C18]); lactam 16-20; not fully specified (residue 12); reading uncertain)",anti-diabetic efficacy,[5],anti-diabetic effect
same,body weight change,[5],weight loss
same,feed intake,[5],reduction of feed intake
CC[C@H](C)[C@H](NC(=O)[C@H](CCC(=O)O)NC(=O)[C@H](CO)NC(=O)[C@@H](NC(=O)[C@@H](N)CO)C(C)C)C(=O)N[C@@H](CCC(N)=O)C(=O)N[C@@H](CC(C)C)C(=O)N[C@@H](CCSC)C(=O)N[C@@H](Cc1cnc[nH]1)C(=O)N[C@@H](CC(N)=O)C(=O)N[C@@H](CC(C)C)C(=O)NCC(=O)N[C@@H](CCCCN)C(=O)N[C@@H](Cc1cnc[nH]1)C(=O)N[C@@H](CC(C)C)C(=O)N[C@@H](CC(N)=O)C(=O)N[C@@H](CO)C(=O)N[C@@H](CCSC)C(=O)N[C@@H](CCC(=O)O)C(=O)N[C@@H](CCCN=C(N)N)C(=O)N[C@H](C(=O)N[C@@H](CCC(=O)O)C(=O)N[C@@H](Cc1c[nH]c2ccccc12)C(=O)N[C@@H](CC(C)C)C(=O)N[C@@H](CCCN=C(N)N)C(=O)N[C@@H](CCCCN)C(=O)N[C@@H](CCCCN)C(=O)N[C@@H](CC(C)C)C(=O)N[C@@H](CCC(N)=O)C(=O)N[C@@H](CC(=O)O)C(=O)N[C@H](C(=O)N[C@@H](Cc1cnc[nH]1)C(=O)N[C@@H](CC(N)=O)C(=O)N[C@@H](Cc1ccccc1)C(=O)O)C(C)C)C(C)C [Compound 23],Cmax,[6],30 ng/mL
"33: Amylin, SEQ No. 16: KCNTATCATQRLADFLRHSSNNFGAIPSSTNVGSRTY; K1: αLys-EG2-Glu-C18 (*K); K1: Lys-B1 (K*) ({C18-Glu-EG2}-[Lys‑B1]CNTATCATQRLADFLRHSSNNFGAIPSSTNVGSRTY; not fully specified; ends and bridges not checked) [Compound 33]",body weight change after 24 hours,[1],weight loss was confirmed
